# Patent US20190352276A1, “INHIBITORS OF BRUTON'S TYROSINE KINASE” (Joint Stock Company "Biocad", priority 2016, published 2019)
# pIC50: −log10 of the molar value.
# Assays:
# [1] = Permeability through the monolayer of Caco-2 cells; type: in vitro ADME; details: human, 2 h at 37° C.
# Procedure, shortened: (§1)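 Bidirectional transport measured over 7200 s with 10 μM compound, using an apical buffer at pH 6.5 and a basolateral Hanks/HEPES/glucose buffer at pH 7.4 containing 1% BSA. Monolayers were 21-day Caco-2 cultures verified with Lucifer Yellow. Chamber concentrations quantified chromatographically to derive Papp in both directions and their B-A/A-B efflux ratio.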
# Caco-2 cells = assay: Permeability through the monolayer of Caco-2 cells; type: in vitro ADME
# Procedure, shortened: as §1
# [2] = system: Mino (mantle cell lymphoma); assay: Antiproliferative activity, Mino cells (Alamar Blue); type: cell-based; details: Homo sapiens, Table 10, 72 h, average of several tests
# Procedure, shortened: (§2)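 Viability is measured with Alamar Blue after the lymphoma cells have spent 72 h with test compounds at 37 °C under 5% CO2. Roughly 3*10^4 cells are seeded per well in serum-supplemented RPMI-1640. Fluorescence is read at 540/590 nm, and IC50 is derived by four-parameter logistic regression.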
# [3] = system: Z-138 (mantle cell lymphoma); assay: Antiproliferative activity, Z-138 cells (Alamar Blue); type: cell-based; details: Homo sapiens, Table 10, 72 h, average of several tests
# Procedure, shortened: as §2
# [4] = system: DOHH2 (follicular lymphoma); assay: Antiproliferative activity, DOHH2 cells (Alamar Blue); type: cell-based; details: Homo sapiens, DOHH-2, Table 10, 72 h, average of several tests
# Procedure, shortened: as §2
# [5] = General cytotoxicity on HepG2 cells (CC50; therapeutic index CC50 HepG2/IC50 Mino); type: cell-based; details: human, HepG2 cells (hepatocellular carcinoma); Table 10; 72 hours, Alamar Blue; average of several tests
# Procedure, shortened: (§3)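 Alamar Blue viability after 72 h exposure to compounds (final 200 μM–4 μM) gave CC50; HepG2 plated 2*10^4/well in DMEM 24 h beforehand. Therapeutic index expressed as ratio of HepG2 CC50 to Mino antiproliferative IC50.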
# [6] = system: HepG2 cells (hepatocellular carcinoma); assay: as above; type: cell-based; details: Table 10; therapeutic index
# Procedure, shortened: as §3
# [7] = target: T1, recombinant Btk kinase enzyme (Homo sapiens, UniProt Q06187); assay: In vitro inhibition of Btk kinase activity (ADP-Glo); type: biochemical; details: Table 8; ADP-Glo; read-out: IC50 kinase BTK
# T1 construct: purchased SignalChem B10-10H
# Procedure, shortened: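 IC50 obtained by four-parameter logistic fitting of ADP-Glo luminescence, which reports ADP generated by the kinase. Reaction: recombinant Btk enzyme, 50 μM ATP, 0.5 mg/mL Poly(4:1 Glu,Tyr) peptide, incubated 180 minutes at 37° C. with test compound.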
# [8] = human, microsomes
# Protocol: 2) Metabolic Stability in Human Liver Microsomes
# The rate of enzymatic decomposition of a compound was detected by incubating the reaction mixture in a dry block heater at 37° C.; the reaction mixture contained 0.5 mg/mL of pooled human liver microsomes (XenoTech, USA, cat# H6010), 10 mM of a drug candidate, 2 mM β-nicotinamide adenine dinucleotide (Carbosynth, UK, cat#NN10871) and 4 mM of magnesium chloride in 0.1M sodium phosphate buffer pH=7.4. The reaction was terminated by adding 100 μL of acetonitrile for each 100 μL of the reaction mixture. After the reaction was terminated, the samples were centrifuged for 10 min at 10000 rpm. The supernatant was chromatographed using Agilent 1200 chromatograph (Agilent, USA). We used gradient elution (1 mL/min flow rate). We plotted a calibration curve of the logarithm of the peak area vs. time. The gradient of the line corresponded to the elimination rate constant k. Based on the constant, determined using the curve, we calculated the drug's half-life (T1/2) and metabolism rate (CLint).
# T1 sequence (Q06187 whole entry): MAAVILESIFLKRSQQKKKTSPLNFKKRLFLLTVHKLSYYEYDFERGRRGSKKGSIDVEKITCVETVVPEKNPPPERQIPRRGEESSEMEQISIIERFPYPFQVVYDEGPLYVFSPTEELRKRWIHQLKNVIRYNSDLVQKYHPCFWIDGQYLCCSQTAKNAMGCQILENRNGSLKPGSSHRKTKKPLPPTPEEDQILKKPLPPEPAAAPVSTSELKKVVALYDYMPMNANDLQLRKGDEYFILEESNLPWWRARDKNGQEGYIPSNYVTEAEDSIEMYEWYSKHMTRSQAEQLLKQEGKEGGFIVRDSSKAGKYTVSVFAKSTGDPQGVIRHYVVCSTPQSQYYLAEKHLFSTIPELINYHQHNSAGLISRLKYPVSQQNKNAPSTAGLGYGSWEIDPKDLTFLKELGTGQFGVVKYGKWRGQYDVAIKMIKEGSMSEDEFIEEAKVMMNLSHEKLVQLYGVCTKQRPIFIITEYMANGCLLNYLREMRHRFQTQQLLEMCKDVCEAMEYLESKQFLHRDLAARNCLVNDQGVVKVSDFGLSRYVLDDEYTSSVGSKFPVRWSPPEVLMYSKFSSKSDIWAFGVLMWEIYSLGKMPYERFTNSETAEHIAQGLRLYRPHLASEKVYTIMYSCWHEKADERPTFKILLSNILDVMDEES
Compound,"Papp A→B at 2 h, 10 μM [1]","Papp B→A at 2 h, 10 μM [1]",efflux (Papp B-A/Papp A-B) (Caco-2 cells),pIC50 [2],pIC50 [3],pIC50 [4],CC50 at 72 h [5],CC50 (HepG2)/IC50 (Mino) [6],pIC50 [7],Clint (microsome metabolic stability) [8]
"C=CC(=O)N1CCC[C@@H](n2nc(-c3cnc(C(=O)Nc4cc(C(F)(F)CC)ccn4)nc3)c3cncc(Cl)c32)C1 [BCD-BTK-293, (R)-5-(1-(1-acryloylpiperidin-3-yl)-7-chloro-1H-pyrazolo[4,3-c]pyridin-3-yl)-N-(4-(1,1-difluoropropyl)pyridin-2-yl)pyrimidine-2-carboxamide]",6.17 ×10⁻⁶ cm/s,0.37 ×10⁻⁶ cm/s,0.06,5.37,< 4.30,< 4.00,> 100 µM,>23.23,–,–
"C=CC(=O)N1CCC[C@@H](n2nc(-c3ccc(C(=O)Nc4cc(C(F)(F)CC)ccn4)cc3)c3cncc(F)c32)C1 [BCD-BTK-214, (R)-4-(1-(1-acryloylpiperidin-3-yl)-7-fluoro-1H-pyrazolo[4,3-c]pyridin-3-yl)-N-(4-(1,1-difluoropropyl)pyridin-2-yl)benzamide]",17.8 ×10⁻⁶ cm/s,0.87 ×10⁻⁶ cm/s,0.05,5.89,4.05,< 4.00,> 100 µM,>77.94,7.46,–
"C=CC(=O)N1CCC[C@@H](n2nc(-c3ccc(Oc4ccncc4)cc3)c3c(N)nccc32)C1 [BCD-BTK -241, (R)-1-(1-acryloylpiperidin-3-yl)-4-amine-3-(4-(pyridin-4-yloxy)phenyl)-1H-pyrazolo[4,3-c]pyridine]",–,–,–,–,–,–,–,–,–,27.4 µL/min/mg
